Source: patent US9624214B2, “Amino-substituted imidazo[1,2-a]pyridinecarboxamides and their use” (BAYER PHARMA AKTIENGESELLSCHAFT, priority 2012, dated 2017)

Target: T1, recombinant guanylate cyclase reporter cell line (Rattus norvegicus, UniProt P19686+P20595)
T1 construct: expressed in transfected cells
T1 sequence (P20595 1-619): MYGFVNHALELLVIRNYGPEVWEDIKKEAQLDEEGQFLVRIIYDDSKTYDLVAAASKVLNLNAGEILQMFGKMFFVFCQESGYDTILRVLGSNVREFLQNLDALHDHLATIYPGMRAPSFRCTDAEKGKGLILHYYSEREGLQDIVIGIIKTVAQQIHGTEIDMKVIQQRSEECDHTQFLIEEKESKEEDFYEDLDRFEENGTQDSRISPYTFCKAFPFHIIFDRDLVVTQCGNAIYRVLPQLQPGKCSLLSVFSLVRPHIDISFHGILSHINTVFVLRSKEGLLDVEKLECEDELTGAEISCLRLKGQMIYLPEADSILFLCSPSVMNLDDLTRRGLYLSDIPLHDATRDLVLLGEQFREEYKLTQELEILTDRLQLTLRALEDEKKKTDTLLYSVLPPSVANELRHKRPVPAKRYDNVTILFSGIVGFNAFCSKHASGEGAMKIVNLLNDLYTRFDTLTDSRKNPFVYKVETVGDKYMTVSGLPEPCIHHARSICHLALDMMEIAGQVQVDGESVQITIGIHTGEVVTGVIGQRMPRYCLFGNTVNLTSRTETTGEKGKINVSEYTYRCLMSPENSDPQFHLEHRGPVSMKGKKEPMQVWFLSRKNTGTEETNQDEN
T1 sequence (P19686 1-690): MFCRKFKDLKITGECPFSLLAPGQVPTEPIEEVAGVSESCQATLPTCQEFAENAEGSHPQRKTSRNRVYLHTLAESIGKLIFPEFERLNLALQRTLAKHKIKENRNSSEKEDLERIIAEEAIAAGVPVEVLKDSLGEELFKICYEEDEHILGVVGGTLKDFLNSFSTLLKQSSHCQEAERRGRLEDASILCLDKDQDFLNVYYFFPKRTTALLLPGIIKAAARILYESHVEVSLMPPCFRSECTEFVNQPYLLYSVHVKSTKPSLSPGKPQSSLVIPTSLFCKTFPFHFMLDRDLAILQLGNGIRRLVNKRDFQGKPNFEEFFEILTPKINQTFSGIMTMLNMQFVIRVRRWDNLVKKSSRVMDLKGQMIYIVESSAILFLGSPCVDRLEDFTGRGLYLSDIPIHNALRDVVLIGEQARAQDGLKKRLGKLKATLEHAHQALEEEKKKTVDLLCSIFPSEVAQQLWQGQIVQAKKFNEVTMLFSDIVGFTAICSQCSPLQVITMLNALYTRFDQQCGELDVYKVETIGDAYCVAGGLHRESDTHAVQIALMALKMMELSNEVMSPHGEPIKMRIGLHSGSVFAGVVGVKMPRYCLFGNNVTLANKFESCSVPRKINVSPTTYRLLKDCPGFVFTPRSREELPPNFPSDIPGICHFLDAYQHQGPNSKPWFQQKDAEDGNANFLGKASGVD
Test: B-2. Action on recombinant guanylate cyclase reporter cell line
Format: cell-based
Details: MEC = minimal effective concentration; in some cases mean values from individual determinations
Procedure, shortened: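 Reported value is the minimal effective concentration (MEC), in some cases a mean of single runs, taken from a recombinant rat guanylate cyclase reporter cell line.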

| MEC [µM] | Structure (SMILES) |
| --- | --- |
| 0.30 | Cc1cc(OCc2c(F)cccc2F)c2nc(C)c(C(=O)NC3(C)CC3(C)N)n2c1 (racemic) [Example 320, rac-N-(2-amino-1,2-dimethylcyclopropyl)-8-[(2,6-difluorobenzyl)oxy]-2,6-dimethylimidazo[1,2-a]pyridine-3-carboxamide (Racemate)] |
| 0.30 | Cc1cc(OCc2c(F)cccc2F)c2nc(C)c(C(=O)NCC(C)(N)Cc3ncn(-c4cc(C)on4)n3)n2c1 (racemic) [Example 321, rac-N-{2-amino-2-methyl-3-[1-(5-methyl-1,2-oxazol-3-yl)-1H-1,2,4-triazol-3-yl]propyl}-8-[(2,6-difluorobenzyl)oxy]-2,6-dimethylimidazo[1,2-a]pyridine-3-carboxamide] |
| 0.30 | Cc1cc(OCc2c(F)cccc2F)c2nc(C)c(C(=O)NC3CC3N)n2c1 (racemic) [Example 330, rac-N-(2-aminocyclopropyl)-8-[(2,6-difluorobenzyl)oxy]-2,6-dimethylimidazo[1,2-a]pyridine-3-carboxamide] |
| 0.30 | Cc1cc(OCc2c(F)cccc2F)c2nc(C)c(C(=O)NC3CCC3(C)N)n2c1 (racemic) [Example 331, rac-N-(2-amino-2-methylcyclobutyl)-8-[(2,6-difluorobenzyl)oxy]-2,6-dimethylimidazo[1,2-a]pyridine-3-carboxamide] |
| 0.30 | Cc1cc(OCc2c(F)cccc2F)c2nc(C)c(C(=O)NC3(C)CCC3(C)N)n2c1 (racemic) [Example 335, rac-N-[2-amino-1,2-dimethylcyclobutyl]-8-[(2,6-difluorobenzyl)oxy]-2,6-dimethylimidazo[1,2-a]pyridine-3-carboxamide] |
| 1.00 | CCCC(C)(N)CNC(=O)c1c(C)nc2c(OCc3ccccc3)cc(C)cn12 (racemic) [Example 340, rac-N-(2-amino-2-methylpentyl)-8-(benzyloxy)-2,6-dimethylimidazo[1,2-a]pyridine-3-carboxamide] |
| 0.30 | Cc1cc(OCc2c(F)cccc2F)c2nc(C)c(C(=O)NC3C(N)C3(C)C)n2c1 (racemic) [Example 341, rac-N-(3-amino-2,2-dimethylcyclopropyl)-8-[(2,6-difluorobenzyl)oxy]-2,6-dimethylimidazo[1,2-a]pyridine-3-carboxamide (Racemate)] |
| 1.00 | Cc1cc(OCc2c(F)cccc2F)c2nc(C)c(C(=O)NC3CCC4NCCC43)n2c1 (racemic) [Example 342, rac-8-[(2,6-Difluorobenzyl)oxy]-2,6-dimethyl-N-(octahydrocyclopenta[b]pyrrol-4-yl)imidazo[1,2-a]pyridine-3-carboxamide] |
| 1.00 | CCCC(C)(N)CNC(=O)c1c(C)nc2c(OCc3ccccc3Cl)cc(C)cn12 (racemic) [Example 343, rac-N-(2-amino-2-methylpentyl)-8-[(2-chlorobenzyl)oxy]-2,6-dimethylimidazo[1,2-a]pyridine-3-carboxamide] |
| 1.00 | Cc1cc(OCc2c(F)cccc2F)c2nc(C)c(C(=O)NCC3CN(Cc4ccccc4)CCO3)n2c1 (racemic) [Example 344, rac-N-[(4-benzylmorpholin-2-yl)methyl]-8-[(2,6-difluorobenzyl)oxy]-2,6-dimethylimidazo[1,2-a]pyridine-3-carboxamide] |
| 1.00 | Cc1cc(OCc2c(F)cccc2F)c2nc(C)c(C(=O)NCC3CNCCO3)n2c1 (racemic) [Example 345, rac-8-[(2,6-Difluorobenzyl)oxy]-2,6-dimethyl-N-(morpholin-2-ylmethyl)imidazo[1,2-a]pyridine-3-carboxamide] |
| 1.00 | Cc1cc(OCc2c(F)cccc2F)c2nc(C)c(C(=O)NC34CCC3CNC4)n2c1 (racemic) [Example 346, rac-N-(3-azabicyclo[3.2.0]hept-1-yl)-8-[(2,6-difluorobenzyl)oxy]-2,6-dimethylimidazo[1,2-a]pyridine-3-carboxamide] |
| 1.00 | Cc1cc(OCc2c(F)cccc2F)c2nc(C)c(C(=O)NC3CNCC3F)n2c1 (racemic) [Example 347, rac-8-[(2,6-Difluorobenzyl)oxy]-N-(4-fluoropyrrolidin-3-yl)-2,6-dimethylimidazo[1,2-a]pyridine-3-carboxamide] |
| 1.00 | CCCC(C)(N)CNC(=O)c1c(C)nc2c(OCc3cccc(F)c3)cc(C)cn12 (racemic) [Example 348, rac-N-(2-amino-2-methylpentyl)-8-[(3-fluorobenzyl)oxy]-2,6-dimethylimidazo[1,2-a]pyridine-3-carboxamide] |
| 1.00 | Cc1cc(OCc2c(F)cccc2F)c2nc(C)c(C(=O)NCC(C)(N)COc3ccc(F)c(F)c3)n2c1 (racemic) [Example 350, rac-N-[2-amino-3-(3,4-difluorophenoxy)-2-methylpropyl]-8-[(2,6-difluorobenzyl)oxy]-2,6-dimethylimidazo[1,2-a]pyridine-3-carboxamide] |
| 3.00 | CCCC(C)(N)CNC(=O)c1c(C)nc2c(OCc3c(F)cccc3OC)cc(C)cn12 (racemic) [Example 351, rac-N-(2-amino-2-methylpentyl)-8-[(2-fluoro-6-methoxybenzyl)oxy]-2,6-dimethylimidazo[1,2-a]pyridine-3-carboxamide] |
| 0.10 | Cc1cc(OCc2c(F)cccc2F)c2nc(C)c(C(=O)NCC3CSCCN3)n2c1 (racemic) [Example 366, rac-8-[(2,6-difluorobenzyl)oxy]-2,6-dimethyl-N-(thiomorpholin-3-ylmethyl)imidazo[1,2-a]pyridine-3-carboxamide] |
| 3.00 | Cc1cc(OCc2c(F)cccc2F)c2nc(C)c(C(=O)NCC(N)c3cccc(OCCO)c3)n2c1 (racemic) [Example 367, rac-N-{2-amino-2-[3-(2-hydroxyethoxy)phenyl]ethyl}-8-[(2,6-difluorobenzyl)oxy]-2,6-dimethylimidazo[1,2-a]pyridine-3-carboxamide] |
| 0.10 | COc1ccc(CC(C)(N)CNC(=O)c2c(C)nc3c(OCc4c(F)cccc4F)cc(C)cn23)cc1 (racemic) [Example 368, rac-N-[2-amino-3-(4-methoxyphenyl)-2-methylpropyl]-8-[(2,6-difluorobenzyl)oxy]-2,6-dimethylimidazo[1,2-a]pyridine-3-carboxamide] |
| 0.30 | Cc1cc(OCc2c(F)cccc2F)c2nc(C)c(C(=O)NCC(N)c3ccc(C)o3)n2c1 (racemic) [Example 369, rac-N-[2-amino-2-(5-methyl-2-furyl)ethyl]-8-[(2,6-difluorobenzyl)oxy]-2,6-dimethylimidazo[1,2-a]pyridine-3-carboxamide] |
| 3.00 | Cc1cc(OCc2c(F)cccc2F)c2nc(C)c(C(=O)NCC(N)c3cnn(C)c3)n2c1 (racemic) [Example 370, rac-N-[2-amino-2-(1-methyl-1H-pyrazol-4-yl)ethyl]-8-[(2,6-difluorobenzyl)oxy]-2,6-dimethylimidazo[1,2-a]pyridine-3-carboxamide] |
| 3.00 | Cc1cc(OCc2c(F)cccc2F)c2nc(C)c(C(=O)NCC(N)c3ccc4c(c3)OCCO4)n2c1 (racemic) [Example 371, rac-N-[2-amino-2-(2,3-dihydro-1,4-benzodioxin-6-yl)ethyl]-8-[(2,6-difluorobenzyl)oxy]-2,6-dimethylimidazo[1,2-a]pyridine-3-carboxamide] |
| 3.00 | Cc1cc(OCc2c(F)cccc2F)c2nc(C)c(C(=O)NCC(N)c3ccc4ncccc4c3)n2c1 (racemic) [Example 372, rac-N-[2-amino-2-(quinolin-6-yl)ethyl]-8-[(2,6-difluorobenzyl)oxy]-2,6-dimethylimidazo[1,2-a]pyridine-3-carboxamide] |
| 3.00 | Cc1cc(OCc2c(F)cccc2F)c2nc(C)c(C(=O)NCC(N)c3csc4ccccc34)n2c1 (racemic) [Example 373, rac-N-[2-amino-2-(1-benzothiophen-3-yl)ethyl]-8-[(2,6-difluorobenzyl)oxy]-2,6-dimethylimidazo[1,2-a]pyridine-3-carboxamide] |
